# Test results: patent US20210403435A1, “HERBICIDAL COMPOUNDS” (SYNGENTA CROP PROTECTION AG, priority 2018, published 2021)
# Columns and labels:
# Assay in all cases: Post-emergence efficacy, glasshouse, evaluated after 13 days
# Format in all cases: in vivo
# [1] = test system: Chenopodium album (CHEAL); conditions: Chenopodium album, 312 h; post-emergence application, 500 g/Ha, evaluated after 13 days; read-out: Control of weed species CHEAL (100=total damage to plant; 0=no damage to plant)
# Summary of the method: (§1)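 Plants grown 14 days in pots of standard soil in a glasshouse (24/16 °C day/night, 14 h light, 65% humidity), then sprayed post-emergence with compound formulated in acetone and IF50 and diluted in 0.25% or 1% Empicol ESC70 + 1% ammonium sulphate. Damage scored after 13 days, 0–100 (100 = total damage).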
# [2] = test system: Ipomoea hederacea (IPOHE); conditions: Ipomoea hederacea, 312 h; post-emergence application, 500 g/Ha, evaluated after 13 days; read-out: Control of weed species IPOHE (100=total damage to plant; 0=no damage to plant)
# Summary of the method: as §1
# [3] = test system: Digitaria sanguinalis (DIGSA); conditions: Digitaria sanguinalis, 312 h; post-emergence application, 500 g/Ha, evaluated after 13 days; read-out: Control of weed species DIGSA (100=total damage to plant; 0=no damage to plant)
# Summary of the method: as §1
# Eleusine indica (ELEIN) = conditions: Eleusine indica, 312 h; post-emergence application, 500 g/Ha, evaluated after 13 days; read-out: Control of weed species ELEIN (100=total damage to plant; 0=no damage to plant)
# Summary of the method: as §1
# [4] = test system: Amaranthus palmeri (AMAPA); conditions: Amaranthus palmeri, 312 h; post-emergence application, 500 g/Ha, evaluated after 13 days; read-out: Control of weed species AMAPA (100=total damage to plant; 0=no damage to plant)
# Summary of the method: as §1
# Setaria faberi (SETFA) = conditions: Setaria faberi, 312 h; post-emergence application, 500 g/Ha, evaluated after 13 days; read-out: Control of weed species SETFA (100=total damage to plant; 0=no damage to plant)
# Summary of the method: as §1
# [5] = test system: Euphorbia heterophylla (EPHHL); conditions: Euphorbia heterophylla, 312 h; post-emergence application, 500 g/Ha, evaluated after 13 days; read-out: Control of weed species EPHHL (100=total damage to plant; 0=no damage to plant)
# Summary of the method: as §1
# Lolium perenne (LOLPE) = conditions: Lolium perenne, 312 h; post-emergence application, 500 g/Ha, evaluated after 13 days; read-out: Control of weed species LOLPE (100=total damage to plant; 0=no damage to plant)
# Summary of the method: as §1
# [6] = test system: Echinochloa crus-galli (ECHCG); conditions: Echinochloa crus-galli, 312 h; post-emergence application, 500 g/Ha, evaluated after 13 days; read-out: Control of weed species ECHCG (100=total damage to plant; 0=no damage to plant)
# Summary of the method: as §1
SMILES,pest or weed control at 500 g/ha [1] [%],pest or weed control at 500 g/ha [2] [%],pest or weed control at 500 g/ha [3] [%],pest or weed control at 500 g/ha (Eleusine indica (ELEIN)) [%],pest or weed control at 500 g/ha [4] [%],pest or weed control at 500 g/ha (Setaria faberi (SETFA)) [%],pest or weed control at 500 g/ha [5] [%],pest or weed control at 500 g/ha (Lolium perenne (LOLPE)) [%],pest or weed control at 500 g/ha [6] [%]
CC(O)CCNC(=O)c1cc[n+](CCC(=O)O)nc1 (stereo not drawn) [Compound A127],80,30,100,100,100,100,70,80,50
CC(C#N)NC(=O)c1cc[n+](CCC(=O)O)nc1 (stereo not drawn) [Compound A85],90,30,100,100,100,90,100,60,90
O=C(NCC1CC1)c1cc[n+](CCS(=O)(=O)[O-])nc1 [Compound A25],90,60,80,90,100,80,80,60,70
"CCNC(=O)c1cc[n+](CC[C@H](N)C(=O)O)nc1 [Compound A91, [(1S)-1-carboxy-3-[4-(ethylcarbamoyl)pyridazin-1-ium-1-yl]propyl]ammonium dichloride]",50,30,60,70,70,70,20,60,0
CCNC(=O)c1cc[n+](CCCS(=O)(=O)[O-])nc1 [Compound A76],70,30,70,60,40,30,100,70,30
CCNC(=O)c1cc[n+](CC(=O)OC)nc1 [Compound A89],0,20,0,0,0,0,20,0,0
CC(CO)NC(=O)c1cc[n+](CCC(=O)O)nc1 (stereo not drawn) [Compound A123],90,50,100,100,100,100,90,50,90
CCC1(NC(=O)c2cc[n+](CCC(=O)O)nc2)CC1 [Compound A134],90,20,100,90,100,60,40,90,100
O=C(c1cc[n+](CCS(=O)(=O)[O-])nc1)N1CCCCC1 [Compound A27],40,30,40,10,70,40,70,30,40
O=C(NCC(F)(F)F)c1cc[n+](CCS(=O)(=O)[O-])nc1 [Compound A36],90,40,60,60,100,60,50,20,30
CC1(C)CC(NC(=O)c2cc[n+](CCC(=O)O)nc2)=NO1 [Compound A131],10,30,30,20,30,30,90,0,30
CCNC(=O)c1cc[n+](C(C)CC(=O)O)nc1 (stereo not drawn) [Compound A61],90,70,100,90,100,50,80,80,50
Cn1nccc1NC(=O)c1cc[n+](CCC(=O)O)nc1 [Compound A116],20,10,60,40,40,40,50,10,40
O=C(O)CC[n+]1ccc(C(=O)NCc2ccc(F)cc2)cn1 [Compound A22],90,40,60,60,100,50,90,40,50
O=C(O)CC[n+]1ccc(C(=O)NCCO)cn1 [Compound A44],100,100,100,30,100,100,100,30,90
CC(C)(CO)NC(=O)c1cc[n+](CCC(=O)O)nc1 [Compound A100],20,20,70,40,60,90,30,50,60
CC(C)CNC(=O)c1cc[n+](CCC(=O)O)nc1 [Compound A35],90,50,80,100,100,90,100,70,60
